≈ marks a conversion by molar mass, not a printed value. Read-outs that look alike come from different tables or passages of the source.
Key:
[1] = tested on: Acinetobacter baumannii NCTC 13420; test: MIC, broth microdilution (CLSI) versus planktonic bacteria; type: cell-based
[2] = tested on: Acinetobacter baumannii ATCC 19606; test: as above; type: cell-based
[3] = tested on: Enterobacter cloacae NCTC 13406; test: as above; type: cell-based
[4] = tested on: Escherichia coli ATCC 25922; test: as above; type: cell-based
[5] = tested on: Haemophilus influenzae ATCC 49247; test: as above; type: cell-based
[6] = tested on: Pseudomonas aeruginosa ATCC 27853; test: as above; type: cell-based
[7] = tested on: Staphylococcus aureus ATCC 29213; test: as above; type: cell-based
[8] = tested on: Streptococcus pneumoniae ATCC 49619; test: as above; type: cell-based
[9] = tested on: human hepatic cell line (HepG2 ATCC HB-8065); test: Human cell viability assay (CellTiter-Glo); settings: Homo sapiens, HepG2, 24 h, read-out: IC50 (μg/mL) HepG2
[10] = Acinetobacter baumannii, NCTC13420, read-out: MIC, Ab NCTC 13420
[11] = Enterobacter cloacae, NCTC13406, read-out: MIC, Ecl NCTC 13406
[12] = Escherichia coli, ATCC25922, read-out: MIC, Ec ATCC 25922
[13] = Haemophilus influenzae, ATCC49247, read-out: MIC, Hi ATCC 49247
[14] = Pseudomonas aeruginosa, ATCC27853, read-out: MIC, Pa ATCC 27853
[15] = Staphylococcus aureus, ATCC29213, read-out: MIC, Sa ATCC 29213
[16] = Streptococcus pneumoniae, ATCC49619, read-out: MIC, Sp ATCC 49619
[17] = NCTC13420, Acinetobacter baumannii NCTC 13420, 16-20 h, mode of three independent experiments, read-out: MIC, Ab NCTC 13420
[18] = NCTC13406, Enterobacter cloacae NCTC 13406, 16-20 h, mode of three independent experiments, read-out: MIC, Ecl NCTC 13406
[19] = ATCC25922, Escherichia coli ATCC 25922, 16-20 h, mode of three independent experiments, read-out: MIC, Ec ATCC 25922
[20] = ATCC49247, Haemophilus influenzae ATCC 49247, 16-20 h, mode of three independent experiments, read-out: MIC, Hi ATCC 49247
[21] = ATCC27853, Pseudomonas aeruginosa ATCC 27853, 16-20 h, mode of three independent experiments, read-out: MIC, Pa ATCC 27853
[22] = ATCC29213, Staphylococcus aureus ATCC 29213, 16-20 h, mode of three independent experiments, read-out: MIC, Sa ATCC 29213
[23] = ATCC49619, Streptococcus pneumoniae ATCC 49619, 16-20 h, mode of three independent experiments, read-out: MIC, Sp ATCC 49619

Structure (SMILES) | MIC [1, 10] [µg/mL] | MIC ([2]; Acinetobacter baumannii, ATCC19606, read-out: MIC, Ab ATCC 19606) [µg/mL] | MIC [3, 11] [µg/mL] | MIC [4, 12] [µg/mL] | MIC [5, 13] [µg/mL] | MIC [6, 14] [µg/mL] | MIC [7, 15] [µg/mL] | MIC [8, 16] [µg/mL] | IC50 [9] [µg/mL] | MIC [1, 17] [µg/mL] | MIC ([2]; ATCC19606, Acinetobacter baumannii ATCC 19606, 16-20 h, mode of three independent experiments, read-out: MIC, Ab ATCC 19606) [µg/mL] | MIC [3, 18] [µg/mL] | MIC [4, 19] [µg/mL] | MIC [5, 20] [µg/mL] | MIC [6, 21] [µg/mL] | MIC [7, 22] [µg/mL] | MIC [8, 23] [µg/mL]
CNCCOc1ccc2ccc(=O)n(CCN[C@@H]3CC[C@@H]4[C@@H](C3)OC(=O)N4c3ccc4c(n3)NC(=O)CO4)c2c1 [Compound 39, (3aR,6R,7aR)—N-(2-{7-[2-(methylazaniumyl)ethoxy]-2-oxo-1,2-dihydroquinolin-1-yl}ethyl)-2-oxo-3-{3-oxo-2H,3H,4H-pyrido[3,2-b][1,4]oxazin-6-yl}-octahydro-1,3-benzoxazol-6-aminium dichloride] | 10 to 100 | > 100 | 10 to 100 | 1 to 10 | 10 to 100 | 1 to 10 | 1 to 10 | 1 to 10 | > 100 |  |  |  |  |  |  |  | 
COC(=O)c1ccc2ccc(=O)n(CCN[C@@H]3CC[C@@H]4[C@@H](C3)OC(=O)N4c3ccc4c(n3)NC(=O)CO4)c2c1 [Compound 36, methyl 1-(2-{[(3aR,6R,7aR)-2-oxo-3-{3-oxo-2H,3H,4H-pyrido[3,2-b][1,4]oxazin-6-yl}-octahydro-1,3-benzoxazol-6-yl]amino}ethyl)-2-oxo-1,2-dihydroquinoline-7-carboxylate] |  |  |  |  |  |  |  |  | 10 to 100 (≈ 18.7 to 187 µM) | < 1 | < 1 | < 1 | < 1 | < 1 | 1 to 10 (≈ 1.87 to 18.7 µM) | < 1 | < 1
O=C1COc2ccc(N3C(=O)O[C@@H]4C[C@H](NCCn5c(=O)ccc6ccc(O)cc65)CC[C@H]43)nc2N1 [Compound 20, 1-(2-{[(3aR,6R,7aR)-2-oxo-3-{3-oxo-2H,3H,4H-pyrido[3,2-b][1,4]oxazin-6-yl}-octahydro-1,3-benzoxazol-6-yl]amino}ethyl)-7-hydroxy-1,2-dihydroquinolin-2-one] |  |  |  |  |  |  |  |  | > 100 | 10 to 100 (≈ 20.3 to 203 µM) |  | 1 to 10 (≈ 2.03 to 20.3 µM) | < 1 | < 1 | 1 to 10 (≈ 2.03 to 20.3 µM) | < 1 | 10 to 100 (≈ 20.3 to 203 µM)
O=C1COc2cnc(N3C(=O)O[C@H]4C[C@@H](NCCn5c(=O)cnc6cc(F)c(F)cc65)CC[C@@H]43)nc2N1 [Compound 66, 1-(2-{[(3aS,6S,7aS)-2-oxo-3-{7-oxo-6H,7H,8H-pyrimido[5,4-b][1,4]oxazin-2-yl}-octahydro-1,3-benzoxazol-6-yl]amino}ethyl)-6,7-difluoro-1,2-dihydroquinoxalin-2-one] |  |  |  |  |  |  |  |  | > 100 | 1 to 10 (≈ 1.95 to 19.5 µM) |  | 10 to 100 (≈ 19.5 to 195 µM) | 1 to 10 (≈ 1.95 to 19.5 µM) | 1 to 10 (≈ 1.95 to 19.5 µM) | > 100 | < 1 | < 1
Cn1ccc(-c2ccc3ccc(=O)n(CCN[C@H]4CC[C@H]5[C@H](C4)OC(=O)N5c4ccc5c(n4)NC(=O)CO5)c3c2)n1 [Compound 104, 1-(2-{[(3aS,6S,7aS)-2-oxo-3-{3-oxo-2H,3H,4H-pyrido[3,2-b][1,4]oxazin-6-yl}-octahydro-1,3-benzoxazol-6-yl]amino}ethyl)-7-(1-methyl-1H-pyrazol-3-yl)-1,2-dihydroquinolin-2-one] |  |  |  |  |  |  |  |  | 10 to 100 (≈ 18 to 180 µM) | < 1 |  | 1 to 10 (≈ 1.8 to 18 µM) | 1 to 10 (≈ 1.8 to 18 µM) | < 1 | 10 to 100 (≈ 18 to 180 µM) | < 1 | < 1
COc1ccc2ccc(=O)n(CCN[C@@H]3CC[C@@H]4[C@H](C3)OC(=O)N4c3ccc4c(n3)NC(=O)CO4)c2n1 [Compound 25, 1-(2-{[(3aR,6R,7aS)-2-oxo-3-{3-oxo-2H,3H,4H-pyrido[3,2-b][1,4]oxazin-6-yl}-octahydro-1,3-benzoxazol-6-yl]amino}ethyl)-7-methoxy-1,2-dihydro-1,8-naphthyridin-2-one] |  |  |  |  |  |  |  |  | 10 to 100 (≈ 19.7 to 197 µM) | < 1 |  | < 1 | < 1 | < 1 | 1 to 10 (≈ 1.97 to 19.7 µM) | < 1 | < 1
COc1ccc2ccc(=O)n(CCN[C@H]3CC[C@H]4[C@@H](C3)OC(=O)N4c3ncc4c(n3)NC(=O)CO4)c2n1 [Compound 16] |  |  |  |  |  |  |  |  | > 100 | 1 to 10 (≈ 1.97 to 19.7 µM) |  | 1 to 10 (≈ 1.97 to 19.7 µM) | < 1 | < 1 | 1 to 10 (≈ 1.97 to 19.7 µM) | < 1 | < 1
N#Cc1cnc2ccc(=O)n(CCN[C@@H]3CC[C@@H]4[C@@H](C3)OC(=O)N4c3ccc4c(n3)NC(=O)CO4)c2c1 [Compound 50, 5-(2-{[(3aR,6R,7aR)-2-oxo-3-{3-oxo-2H,3H,4H-pyrido[3,2-b][1,4]oxazin-6-yl}-octahydro-1,3-benzoxazol-6-yl]amino}ethyl)-6-oxo-5,6-dihydro-1,5-naphthyridine-3-carbonitrile] |  |  |  |  |  |  |  |  | > 100 | 1 to 10 (≈ 1.99 to 19.9 µM) |  | 1 to 10 (≈ 1.99 to 19.9 µM) | < 1 | < 1 | < 1 | < 1 | < 1
COc1ccc2ccc(=O)n(CCN(C(=O)CN)[C@H]3CC[C@H]4[C@H](C3)OC(=O)N4c3ccc4c(n3)NC(=O)CO4)c2n1 [Compound 78, {[(3aS,6S,7aS)-2-oxo-3-{3-oxo-2H,3H,4H-pyrido[3,2-b][1,4]oxazin-6-yl}-octahydro-1,3-benzoxazol-6-yl][2-(7-methoxy-2-oxo-1,2-dihydro-1,8-naphthyridin-1-yl)ethyl]carbamoyl}methanaminium chloride] | 10 to 100 |  | > 100 | 1 to 10 | 10 to 100 | 1 to 10 | < 1 | < 1 | > 100 |  |  |  |  |  |  |  | 
O=C1COc2ccc(N3C(=O)O[C@@H]4C[C@@H](NCCn5c(=O)ccc6ncc(F)cc65)CC[C@@H]43)nc2N1 [Compound 28, 1-(2-{[(3aS,6S,7aR)-2-oxo-3-{3-oxo-2H,3H,4H-pyrido[3,2-b][1,4]oxazin-6-yl}-octahydro-1,3-benzoxazol-6-yl]amino}ethyl)-7-fluoro-1,2-dihydro-1,5-naphthyridin-2-one] |  |  |  |  |  |  |  |  | > 100 | 1 to 10 (≈ 2.02 to 20.2 µM) |  | 1 to 10 (≈ 2.02 to 20.2 µM) | < 1 | 1 to 10 (≈ 2.02 to 20.2 µM) | 1 to 10 (≈ 2.02 to 20.2 µM) | < 1 | < 1
N#Cc1ccc(-c2cccc(CN[C@H]3CC[C@H]4[C@H](C3)OC(=O)N4c3ccc4c(n3)NC(=O)CO4)c2)nc1 [Compound 71, 6-[3-({[(3aS,6S,7aS)-2-oxo-3-{3-oxo-2H,3H,4H-pyrido[3,2-b][1,4]oxazin-6-yl}-octahydro-1,3-benzoxazol-6-yl]amino}methyl)phenyl]pyridine-3-carbonitrile] |  |  |  |  |  |  |  |  | 10 to 100 (≈ 20.1 to 201 µM) | 1 to 10 (≈ 2.01 to 20.1 µM) |  | 1 to 10 (≈ 2.01 to 20.1 µM) | < 1 | 1 to 10 (≈ 2.01 to 20.1 µM) | 10 to 100 (≈ 20.1 to 201 µM) | < 1 | 1 to 10 (≈ 2.01 to 20.1 µM)
N#Cc1ccc2ccc(=O)n(CCN(CCN)[C@@H]3CC[C@@H]4[C@@H](C3)OC(=O)N4c3ccc4c(n3)NC(=O)CO4)c2c1 [Compound 19, 1-(2-{[(3aR,6R,7aR)-2-oxo-3-{3-oxo-2H,3H,4H-pyrido[3,2-b][1,4]oxazin-6-yl}-octahydro-1,3-benzoxazol-6-yl](2-aminoethyl)amino}ethyl)-2-oxo-1,2-dihydroquinoline-7-carbonitrile] |  |  |  |  |  |  |  |  | > 100 | 10 to 100 (≈ 18.4 to 184 µM) |  | > 100 | 10 to 100 (≈ 18.4 to 184 µM) | 10 to 100 (≈ 18.4 to 184 µM) | 10 to 100 (≈ 18.4 to 184 µM) | < 1 | > 100
NCCOc1ccc2ccc(=O)n(CCN[C@H]3CC[C@H]4[C@H](C3)OC(=O)N4c3ccc4c(n3)NC(=O)CO4)c2c1 [Compound 75, (3aS,6S,7aS)—N-{2-[7-(2-azaniumylethoxy)-2-oxo-1,2-dihydroquinolin-1-yl]ethyl}-2-oxo-3-{3-oxo-2H,3H,4H-pyrido[3,2-b][1,4]oxazin-6-yl}-octahydro-1,3-benzoxazol-6-aminium dichloride] | > 100 |  | 1 to 10 | < 1 | 10 to 100 | 1 to 10 | 1 to 10 | < 1 | > 100 |  |  |  |  |  |  |  | 
CN(C)CCOc1ccc2ccc(=O)n(CCN[C@@H]3CC[C@@H]4[C@@H](C3)OC(=O)N4c3ccc4c(n3)NC(=O)CO4)c2c1 [Compound 32, 1-(2-{[(3aR,6R,7aR)-2-oxo-3-{3-oxo-2H,3H,4H-pyrido[3,2-b][1,4]oxazin-6-yl}-octahydro-1,3-benzoxazol-6-yl]amino}ethyl)-7-[2-(dimethylamino)ethoxy]-1,2-dihydroquinolin-2-one] |  |  |  |  |  |  |  |  | > 100 | > 100 |  | 10 to 100 (≈ 17.8 to 178 µM) | 1 to 10 (≈ 1.78 to 17.8 µM) | 10 to 100 (≈ 17.8 to 178 µM) | 1 to 10 (≈ 1.78 to 17.8 µM) | 1 to 10 (≈ 1.78 to 17.8 µM) | 1 to 10 (≈ 1.78 to 17.8 µM)
